Results reported in patent US20180333461A1, “METHODS AND COMPOSITIONS FOR TREATING OR PREVENTING FLAVIVIRUS INFECTIONS” (THE UNIVERSITY OF QUEENSLAND, priority 2014, published 2018).
“Also recorded” adds a separate entry of the source.

Experiments:
[1] = tested on: bone marrow-derived macrophages (BMM); experiment: CSF-1R down-modulation assay on BMMs (flow cytometry); format: cell-based, mouse; details: 1 hour treatment
Experimental: NS1 and LPS were pre-incubated for 30 minutes with or without polymyxin B, then added to PBMC and incubated for 24 hours. The final concentration of polymyxin B was 25 μg/mL, with varying concentrations of LPS (0.1, 1, 10 ng/mL) and NS1 (5, 10, 20 and 40 μg/mL). Released IL-6 was measured by ELISA. […] NS1 and LPS were pre-incubated for 30 minutes with or without polymyxin B then added to BMMs that had been starved of CSF1 overnight. The final concentration of polymyxin B was 25 μg/mL, with LPS (10-fold dilutions from 100 ng/mL) and NS1 (2′-fold dilutions from 10 μg/mL). After 1 hour of treatment, CSF1R levels were determined by flow cytometry, and the % of cells with high levels of receptor are shown. Data are the mean±SD from three (A) or five (B) independent experiments.
FIG. 3 is a graphical representation showing that NS1 from several sources has immunostimulatory activity. (A) NS1 immuno-depletion prevents the down-modulation of surface CSF1R by S2 cell-expressed NS1. […] The final concentration of 5 μg/mL NS1 (as quantified by capture-ELISA) represents approximately 4-fold higher levels than produced in the CHO cell medium. […]
FIG. 5 is a graphical representation showing that NS1 activates cells via TLR4. […] CSF1R on wild-type C57BL/6 BMM (WT), tlr4^−/− and MyD88^−/−/trif^−/− BMMs was measured after 1 hour treatment with CSF1 (10^4 U/mL), LPS (100 ng/mL) and NS1 (10 μg/mL). […]

[2] = tested on: human PBMC; experiment: IL-6 secretion by human PBMC (ELISA), with or without polymyxin B pre-incubation; format: cell-based; details: 24 hours
Experimental: FIG. 1 is a graphical representation showing that Dengue NS1 activates human and mouse innate immune responses. (A) NS1 induces IL-6 secretion by human PBMC. Cells were treated for 24 hrs. with LPS (100 ng/mL), NS1 (40 μg/mL), or an analogous NS1 sample immune-depleted with anti-NS1 or anti-E antibody. IL-6 was measured by ELISA. Data shown is mean±SD of three donors. The inset immunoblot is of the supernatant fraction following immuno-depletion using anti-NS1 antibody or isotype-matched control antibody. […] ELAM promoter activity was monitored as in B, in response to LPS (100 ng/mL), NS1 (40 μg/mL), NS1 immuno-depleted using anti-NS1 antibody or isotype-matched control antibody (confirmed in western blot inset).
NS1 and LPS were pre-incubated for 30 minutes with or without polymyxin B, then added to PBMC and incubated for 24 hours. […] Released IL-6 was measured by ELISA. […] After 1 hour of treatment, CSF1R levels were determined by flow cytometry, and the % of cells with high levels of receptor are shown. […]
Human PBMCs from healthy donors were seeded at 1×10^6 cells per well in 12 well plates prior to incubation with NS1 or LPS. […] The level of IL-6 production was quantitated ELISA (R & D Systems) according to the protocol recommended by the manufacturer.

Substance: polymyxin B
- Effect on LPS-induced loss of surface CSF1R on BMMs ([1]; polymyxin B 25 μg/mL pre-incubated with LPS 30 min): sensitive
- Effect on NS1-induced loss of surface CSF1R on BMMs ([1]; polymyxin B 25 μg/mL pre-incubated with NS1 30 min): does not block
- Effect on LPS-induced IL-6 in PBMC ([2]; polymyxin B 25 μg/mL pre-incubated with LPS 30 min, LPS ≤10 ng/mL): inhibited
- Effect on NS1-induced IL-6 in PBMC ([2]; polymyxin B 25 μg/mL pre-incubated with NS1 (5-40 μg/mL) 30 min): does not block; also recorded: unaffected
